In assay [1] the test system is northern corn rootworm (NCR). Put plainly: Sticky trap attraction in corn, phenylethanol analogues (Example 6). It counts as in vivo, Diabrotica barberi. The note with it: four replicates; for Mean number of NCR per trap (± standard deviation): 24 hour. An outline of the steps:
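Field sticky traps (TangleTrap-coated cartons) baited with 100 mg or 100 μL test chemical on cotton wicks unless otherwise indicated; untreated wicks as controls. Four replicates per treatment, spaced 10 m apart on 1 m posts at corn field edges. Readout: mean beetles caught per trap after ~24 h; log-transformed ANOVA with Duncan's test, P=0.05.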

The test system of assay [2] is D. u. howardi. Put plainly: Sticky trap attraction along hybrid corn, Pomology South Farms (Example 2). The following applies: 100 mg per trap, n = 4. It counts as in vivo, Diabrotica undecimpunctata howardi. An outline of the steps: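 Lures (>98% purity) dosed at 100 mg per trap on cotton wicks atop TangleTrap-coated 1.0 liter cartons, solids dissolved in acetone; untreated wicks as controls. Four replicates placed 10 m apart on 1 m posts along a 0.8 ha hybrid corn field; mean beetles caught after 24-h, log-transformed ANOVA with Duncan's test.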

For assay [3], the system named is western corn rootworm (WCR). Put plainly: Sticky trap attraction in corn, phenylethanol analogues (Example 6). Format: in vivo, Diabrotica virgifera virgifera. The following applies: Table 16; 100 mg per trap; four replicates; 24 hour. On the procedure:
Test chemicals (purchased from Aldrich Chemical Co.; Milwaukee, Wis.) were applied by capillary micropipettes to cotton dental wicks that were attached to tops of 1.0 liter cylindrical paper cartons covered with TangleTrap™, Grand Rapids, Mich. The trapping techniques used were as previously described in Example 1. Unless otherwise indicated, all treatments were made at a dosage of 100 mg or 100 μL of attractant per trap. Control traps had untreated wicks. Four replicates of treated and untreated traps were positioned randomly 10 meters apart on top of 1 m high posts along the edges of 25-50 ha. fields of hybrid corn (Zea mays), infested with adult NCR, SCR, and WCR beetles. Several experiments detailed in the Tables were made in a 0.4 ha plot of sweet corn (Illini X-tra Sweet).
Attraction of Diabrotica species adults of the sticky traps was measured by the mean number of beetles caught after 1 day (ca. 24 hours) exposure. The significance of the treatments was determined by analysis of variance and the individual means were separated by Duncan's multiple range test (Statistical Package for the Social Sciences, Nie, et al., 2nd. ed. McGraw-Hill, New York (1975). The data was logarithmically transformed for statistical analysis. Means and standard deviations are presented for the untransformed data. Significance levels were set at P=0.05 for all statistical analyses.

Assay [4] has as its system northern corn rootworm (NCR) adults. Put plainly: Sticky trap attraction in corn, estragole analogues (Example 3). It counts as in vivo, Diabrotica barberi. The following applies: 100 mg per trap, n = 4. An outline of the steps: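 Cotton wicks dosed with 100 mg or 100 μL attractant per trap on TangleTrap-coated cartons, four replicates 10 m apart on 1 m posts at field edges of hybrid or sweet corn. Mean beetles caught after ~24 h; log-transformed ANOVA with Duncan's test, P=0.05.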

Assay [5] has as its system D. u. howardi. Put plainly: Sticky trap attraction in prairie habitat, Trelease Woods (Example 2). Format: in vivo, Diabrotica undecimpunctata howardi. The note with it: 100 mg per trap, n = 4. An outline of the steps: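 Lure-dosed cotton wicks (solids in acetone; untreated controls) on TangleTrap-coated cartons atop 1 m posts, four replicates 10 m apart in relict prairie, mid-August over two years. Read-out: mean beetles caught after 24-h; log-transformed ANOVA with Duncan's multiple range test.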

Setting [6] is: day 1 after single 100 mg dosage on cotton wick.
Setting [7] is: day 2 after single 100 mg dosage on cotton wick.
Where [8] appears, read: day 3 after single 100 mg dosage on cotton wick.
Setting [9] is: day 4 after single 100 mg dosage on cotton wick.
[10] abbreviates: day 5 after single 100 mg dosage on cotton wick.
[11] abbreviates: day 6 after single 100 mg dosage on cotton wick.
The mark [12] stands for this setting: day 7 after single 100 mg dosage on cotton wick.
Where [13] appears, read: day 8 after single 100 mg dosage on cotton wick.
The mark [14] stands for this setting: day 11 after single 100 mg dosage on cotton wick.

The record followed here is US6613317B1, “Volatile attractants for diabrotica species” (priority 1988, dated 2003).

Marks after values point to notes of the source that are not given here.

Turning to `OCC=Cc1ccccc1` [XVIII, cinnamyl alcohol], the “Mean number of NCR per trap (± standard deviation)” value in assay [1] (Table 16, 100 mg per trap) came to 50.7 ± 50.9b per trap; in assay [1] (Table 18, 1 mg) it was 3.5 ± 2.4a per trap; in assay [1] (Table 18, 3 mg), 4.0 ± 0.8ab per trap; in assay [1] (Table 18, 10 mg) it was 8.5 ± 2.1bc per trap; in assay [1] (Table 18, 30 mg), 15.2 ± 4.2c* per trap; in assay [1] (Table 20, 100 mg per trap), 127.0 ± 24.2b per trap. Further, the “Mean number (control subtracted) of NCR per trap” value in assay [1] (setting [6]) is on record as 52.0 per trap; in assay [1] (setting [7]), 65.3 per trap; in assay [1] (setting [8]) it was 17.3 per trap; in assay [1] (setting [9]), 19.5 per trap; in assay [1] (setting [10]), 17.7 per trap; in assay [1] (setting [11]), 7.7 per trap. Moreover, the “Mean number (control subtracted) of NCR per trap” value in assay [1] (setting [12]) is given as 10.4 per trap; in assay [1] (setting [13]) it was 11.0 per trap; in assay [1] (setting [14]) it was 9.8 per trap. The “Mean number of D. u. howardi per stick trap per day (±standard deviation) in corn” value with D. u. howardi [2] (August 7) is on record as 24.5 ± 13.6^b per stick trap per day; in the assay with D. u. howardi [2] (August 18), 1.8 ± 1.3^b per stick trap per day. The “Mean number of WCR per trap (±standard deviation)” value in assay [3] is 4.0 ± 1.6a per trap. Also, the “Mean number of NCR per sticky trap after 24 hours” value in assay [4] (August 5 (Table 10)) was 8.7 ± 4.6^c per sticky trap. Also, the “Mean number of NCR (±standard deviation) per sticky trap after 24 hours” value in assay [4] (August 7 (Table 11)) is recorded as 8.5 ± 6.1^b per sticky trap; in assay [4] (August 18 (Table 11)), 23.2 ± 5.9^c per sticky trap. Moreover, the “Mean number of D. u. howardi per day (±standard deviation)” value is reported as 0.3 ± 0.5^a per day in the assay on D. u. howardi [5] (August 11, 1987) and 2.8 ± 1.7^b per day with D. u. howardi [5] (August 14, 1987).

On to `C=CCc1ccc(O)c(OC)c1` [XXIV, eugenol], for which the “Mean number (control subtracted) of NCR per trap” value worked out at 88.2 per trap in assay [1] (setting [6]); 67.3 per trap in assay [1] (setting [7]); 14.3 per trap in assay [1] (setting [8]); 18.0 per trap in assay [1] (setting [9]); 20.7 per trap in assay [1] (setting [10]); 29.9 per trap in assay [1] (setting [11]). Also, the “Mean number (control subtracted) of NCR per trap” value in assay [1] (setting [12]) worked out at 30.2 per trap; in assay [1] (setting [13]), 35.5 per trap; in assay [1] (setting [14]), 10.0 per trap. For the same compound, the “Mean number of D. u. howardi per stick trap per day (±standard deviation) in corn” value in the assay with D. u. howardi [2] (August 7) was 6.3 ± 1.0^a per stick trap per day; in the assay with D. u. howardi [2] (August 18) it was 0.0^a per stick trap per day. Moreover, the “Mean number of NCR (±standard deviation) per sticky trap after 24 hours” value was 5.7 ± 2.2^b per sticky trap in assay [4] (August 7 (Table 11)) and 16.5 ± 5.7^b per sticky trap in assay [4] (August 18 (Table 11)). Also, the “Mean number of D. u. howardi per day (±standard deviation)” value in the assay with D. u. howardi [5] (August 11, 1987) is 0.0^a per day; in the assay with D. u. howardi [5] (August 14, 1987) it was 0.0^a per day. Moreover, the “Mean number of D. u. howardi per sticky trap per day (±standard deviation)” value with D. u. howardi [5] (August 18, first year) is listed as 0.3 ± 0.5^a per sticky trap per day; with D. u. howardi [5] (August 20, first year), 0.8 ± 0.5^a per sticky trap per day; in the assay with D. u. howardi [5] (August 27, first year), 0.3 ± 0.5^a per sticky trap per day.
